Measurements as given in patent US20240075027A1, “REPOSITIONING THE ANTI-LEPROSY DRUG CLOFAZIMINE AGAINST DRUG-RESISTANT MYELOMA AND PUTATIVE STEM-CELL SUBCLONES” (Auburn University, priority 2022, published 2024).
Where two headings read alike, the source gives them in different places.

What was measured:
[1] = system: human myeloma cell lines (HMCLs); experiment: In vitro chemosensitivity assay (CellTiter-Glo cell viability); format: cell-based; conditions: single-agent
Description: A large panel of HMCLs representing innate sensitivity and resistance to PIs and IMiDs (similar to refractory disease) have been compiled, as well as >10 pairs of parental and clonally-derived PI/IMiD-resistant HMCLs (P vs R pairs; generated using dose escalation over a period of time) representing acquired or emerging drug resistance, and encompassing the broad spectrum of biological and genetic heterogeneity of myeloma (Mitra et al., 2017, Blood Cancer J., 7:e581). The human myeloma cell lines (HMCLs) were obtained as previously described (Mitra et al., 2017, Blood Cancer J., 7:e581). The clonally related acquired PI-resistant HMCLs were generated from parental cell lines by dose escalation of bortezomib using pulses of once-weekly bortezomib treatment as described previously (Mitra et al., 2016, Leukemia., 30:1094-1102). […]
HMCLs were treated with increasing concentrations of CLF, PIs (represented by Ix), and IMiDs (represented by Len) as single agents or in combination for 48 h, and cytotoxicity assays were performed using CellTiter-Glo® Luminescent cell viability assay (Promega Madison, WI). Luminescence was recorded in a Neo2 Microplate Reader (Biotek), and half-maximal inhibitory concentration (IC50) values were determined by calculating the nonlinear regression using the sigmoidal dose-response equation (variable slope). […]

[2] = system: bone marrow-derived CD138+ primary myeloma cells (PMCs); experiment: Ex vivo direct-to-drug screening assay (CellTiter-Glo); format: cell-based; conditions: Homo sapiens, single-agent
Description: Bone marrow-derived CD138+ primary myeloma cells were obtained from patients (n=16) and used as ex vivo model systems. Written informed consent was received from participants prior to inclusion in the study. Participants have been identified by number, not by name. The primary samples were cultured as total bone marrow and put in culture to retain the patients' natural BM microenvironment. Cells of interest were CD138+-gated during analysis. The drugs were screened in a 7-point, 10-fold dilution, with the highest concentration at 10 μM, and incubated for 24 h. Anti-MM activity was assessed through cellular viability, evaluated with CellTiter-Glo®. The mid-point EC50, percentage of maximum inhibition was calculated using the TIBCO Spotfire® v.7.0.0 software, and the area under the curve (AUC) was calculated with the GraphPad Prism v.8 software (Bonolo de Campos et al., 2020, Blood Cancer J., 10:54).

[3] = system: human myeloma cell lines (HMCLs); experiment: Drug synergy analysis (Calcusyn, Chou-Talalay combination index); format: cell-based; conditions: CLF in combination with PI or IMiD
Description: HMCLs were treated with increasing concentrations of CLF, PIs (represented by Ix), and IMiDs (represented by Len) as single agents or in combination for 48 h, and cytotoxicity assays were performed using CellTiter-Glo® Luminescent cell viability assay (Promega Madison, WI). Luminescence was recorded in a Neo2 Microplate Reader (Biotek), and half-maximal inhibitory concentration (IC50) values were determined by calculating the nonlinear regression using the sigmoidal dose-response equation (variable slope). The drug cytotoxicity data and IC50 values were used to compare response and to determine synergy by Calcusyn software (Biosoft; Chou-Talalay's CI theorem) (Chou, 2011, Am J Cancer Res, 1: 925-54). CI value <0.9 denotes synergism.

[4] = system: HMCLs; experiment: Apoptosis assay (Annexin V-FITC flow cytometry); format: cell-based, human
Description: Cells were cultured for 48 h in the presence of indicated concentrations of compounds, harvested and washed, and incubated with Annexin V-FITC (BD Biosciences) and Propidium Iodide for 15 min at room temperature in the dark. Apoptosis was measured by BD LSR II flow cytometry (BD Biosciences).

[5] = system: caspase-3/7 activity in HMCLs; experiment: Caspase-Glo 3/7 luminescent assay; format: cell-based, human
Description: Caspase-3/7 activity assays were performed on the HMCLs using Caspase-Glo 3/7 luminescent assay kit according to manufacturer's instructions (Promega Madison, WI). Briefly, 1×10^6 cells/ ml were cultured in 6-well plates and treated with either CLF alone and/or combination for indicated times. After harvesting, cells were washed twice with cold PBS and resuspended with Caspase-Glo 3/7 reagents. Reactions were incubated for 1 h at 37° C., and luminescence was determined using Synergy 2 Microplate Reader (Biotek). Cell death by apoptosis was also measured by immunoblotting analysis.

[6] = system: apoptotic, ER stress, autophagy and survival proteins in myeloma cells; experiment: Western blotting (immunoblotting) pre- vs post-treatment; format: cell-based, human
Description: Cells treated with CLF, PI, or IMiD as single-agent or as a combination for 24 h were harvested, washed, and lysed using radioimmunoprecipitation assay (RIPA) lysis buffer containing 50 mM Tris-HCl, pH 7.5, 150 mM NaCl, 1% NP40, 5 mM EDTA, 1 mM DTT, phosphatase and […] cocktail (Sigma), and incubated on ice for 15 min. Samples were then centrifuged at 14,000 rpm at 4° C. for 30 mins. The supernatant was then aspirated, total protein was isolated and quantified using Pierce BCA Protein Assay Kit (Thermo Scientific). Samples were solubilized in SDS-PAGE sample buffer, and equal amounts of protein were loaded per lane of 10% SDS polyacrylamide gels and transferred onto PVDF membranes (Millipore; Billerica, MA). Membranes were blocked in TBS with SuperBlock® blocking buffer (Thermo Fisher). Membranes were then incubated with primary antibodies and secondary antibodies in TBS with 0.2% Tween® 20 and 2.5% BSA. Immunoreactivity was detected by Chemiluminescent HRP Substrate (Bio-Rad), and the exposed image was captured using a ChemiDoc MP Imaging System (Bio-Rad). Densitometry analysis was performed (in triplicates) using Image J software.

[7] = system: RPMI8226P/VR cells; experiment: Superoxide levels (DHE flow cytometry); format: cell-based, human; conditions: 24 h
Description: Myeloma cells treated with CLF-based regimens for 24 h were incubated with 2.5 μM DHE (in RPMI) for 15 min in the dark at 37° C. Cells were then washed once with PBS, and red fluorescence was detected by flow cytometry.

[8] = system: RPMI8226P/VR cells; experiment: Mitochondrial membrane potential (JC-1); format: cell-based, human; conditions: 24 h
Description: CLF-treated (24 h) cells were incubated with 5 μM JC-1 dye for 15 min in the dark at 37° C. and washed twice in PBS, and then analyzed for red and green fluorescence by flow cytometry.

[9] = system: HMCLs (RPMI826 P/VR and U266 P/VR); experiment: Colony-forming cells (CFCs) assay (Methocult); format: cell-based, human
Description: Colony formation potential of untreated and drug-treated HMCLs was accessed using Methylcellulose-based assay according to manufacturer's instructions (Methocult, Stem Cell Technologies). Briefly, myeloma cells were treated with either CLF alone or in combination with PI for the indicated time period. Following incubation, cells were harvested, washed with PBS, and methylcellulose-based media (Methocult) was added to cells pellets, and colonies were allowed to grow for 4 weeks in 6-well plates. Images were captured after 4 weeks with an inverted microscope (Olympus, 4×/20× lens with color camera), and cell colony numbers were counted by Image J software (NIH).

[10] = system: ALDH+ myeloma cells; experiment: Aldefluor (ALDH) activity assay; format: cell-based, human; conditions: 24 h
Description: Aldehyde dehydrogenase (ALDH) activity was assessed using the Aldefluor™ assay kit according to the manufacturer's instructions (Stem Cell Technologies). Briefly, 1×10^6 myeloma cells were treated with CLF-based regimens for 24 h, harvested, and resuspended in 1 ml Aldefluor™ assay buffer containing the ALDH substrate BODIPY-aminoacetaldehyde (BAAA). Negative control samples were treated with 5 μl of diethylaminobenzaldehyde (DEAB) as an inhibitor of ALDH1 enzymatic activity. Cells were incubated for 30-45 min at 37° C., then washed twice, and suspended in Aldefluor™ assay buffer. The brightly fluorescent ALDH+ cells were detected by BD LSR II flowcytometry.

[11] = system: RPMI8226P, RPMI8226VR, U266P, and U266VR cells; experiment: CFSE assay of quiescent CD138+ cells; format: cell-based, human; conditions: parental and clonally derived PI-resistant cells
Description: For assessing apoptosis in quiescent CD138+ cells, myeloma cells were first stained with carboxyfluorescein succinimidyl ester (CFSE; Invitrogen) for 30 min, then washed and resuspended in RPMI1640 medium and were incubated at 37° C. overnight. The next day, cells were treated and maintained further for 4 days with supplementation of the drugs every 48 h.

[12] = system: Side population (SP) cells in PI-resistant HMCLs; experiment: Side population analysis (DyeCycle Violet); format: cell-based, human
Description: Side population cells were investigated using DyeCycle™ Violet (cell-permeable DNA binding) assays according to manufacturer's instructions (Thermofisher). […] After 96 h, cells were stained with 10 μM Vybrant™ DyeCycle™ Violet (DCV; Molecular Probes, Eugene, OR) for 90 min at 37° C. Samples incubated with 100 μM verapamil (Sigma-Aldrich) for 30 min were used as positive control. Following dye incubation, cells were washed twice with ice-cold PBS, chilled on ice, and immediately analyzed by flow cytometry.

[13] = system: HMCLs and patient primary myeloma cells; experiment: Mass cytometry (CyTOF) single-cell proteomics; format: cell-based, human
Description: Mass cytometry (CyTOF) analysis is a single-cell proteomics methodology that combines flow cytometry and elemental mass spectrometry. Thirty-seven antibody targets directed against cell surface (neoplastic myeloma) and intracellular markers (immune tumor microenvironment) were utilized for immunophenotyping panels. The antibody markers and respective metal conjugates are described in Table 2. One to three million untreated or treated (for 24 h) HMCLs or primary human myeloma cells were used for CyTOF staining. Cells were stained with cisplatin (1:10,000 dilutions in RPMI1640 media without FBS) at 37° C. for 5 minutes, washed with media with 10% FBS, spun at 300×g, and incubated with media with 10% FBS for 15 min. This was followed by another wash, spin, and the pellet was resuspended in 1× Fix buffer for 10 minutes at room temperature. HMCL samples, along with lyophilized healthy human PBMC (Veri-Cells PBMC: control cells; BioLegend), were washed using Maxpar cell staining buffer (MCSB) (Fluidigm). A total of 16 μL of the surface antibody cocktail was added to each tube containing each cell suspension in 100 μL of MCSB and incubated for 30 minutes at room temperature. Cells were washed with MCSB to remove excess antibodies and stored overnight at −80° C. after methanol fixation. Cells were washed with MCSB and incubated with 20 μL of intracellular antibody cocktail for 30 minutes at room temperature, followed by wash and fixation with fresh 1.6% formaldehyde solution for 10 minutes at room temperature. Cells were washed with MCSB and resuspended in 1 ml of Cell-ID™ Intercalator solution (1:4000 dilution in permeabilization buffer, Maxper Fix, and Perm Buffer). All samples were barcoded using cell-ID™ 20-Plex Barcoding Kit (Fluidigm), which were then stained, washed with MSCB, and acquired as a single multiplexed sample using Maxpar Cell Acquisition solution contained calibration beads.
Samples were loaded onto a Helios CyTOF system (Fluidigm) using an attached autosampler and were acquired at a rate of 200-400 events per second. Data were collected as .FCS files using the CyTOF Software (Version 6.7.1014, Fluidigm). After acquisition, intrafile signal drift was normalized to the acquired calibration bead signal using the CyTOF Software.
For CyTOF data analysis, Cytobank software version 7.3.0 (Santa Clara, CA) was used for cleanup of cell debris, removal of doublets and dead cells, and analysis of cleaned fcs files. Clustering, dimensionality reduction (to 10,000 events per file), and the visualization of cell population cluster map were performed by t-SNE. Relative marker intensities and cluster abundances per sample were visualized by a heatmap.

[14] = cited from earlier work
[15] = HMCLs and patient-derived primary cells, irrespective of PI- or IMiD-resistance

Structure (SMILES): CC(C)/N=c1\cc2n(-c3ccc(Cl)cc3)c3ccccc3nc-2cc1Nc1ccc(Cl)cc1 [CLF, clofazimine]
- IC50 ([1]; Homo sapiens, 48 h, panel of sensitive, innate and clonally-derived resistant HMCLs): 0.2 to 20.5 µM
- anti-myeloma potency compared with other PPARg agonists (rosiglitazone, pioglitazone) [1]: most potent among all the PPARg agonists tested
- EC50 ([2]; ex vivo, patients n=12, read-out: maximum EC50): 15.2 µM
- EC50 ([2]; ex vivo, patients n=12, read-out: median EC50): 2.41 µM
- EC50 ([2]; ex vivo, patients n=12, read-out: minimum EC50): 1.05 µM
- EC50 ([2]; patients n=12, range, read-out: ex vivo CLF EC50 values): 1 to 15 µM
- therapeutic index / amount of PI/IMiD required (dose reduction index, predicted decrease in IC50) [3]: decreased the amount of PI/IMiD required to achieve effective responses
- apoptosis (annexin V staining) ([4]; CLF alone): significant apoptosis
- apoptosis (annexin V staining) ([4]; in combination with 15 nm ixazomib): significant apoptosis
- caspase-3 activity (Caspase 3/7 assay) [5]: induced caspase-3 activity
- ER stress pathway and autophagy proteins ([6]; IRE1, PERK, ATF6, mRNA sequencing, IPA and Western blotting): induces the proteins involved ER stress pathway
- anti-apoptotic/survival markers and Bax expression ([6]; Western blotting): decrease in the anti-apoptotic/survival markers Bcl2, Mcl-1 and increase in Bax expression
- caspase activation (Western blotting) ([6]; caspase-3, 8, 9): activated caspase-3 and 9 but not 8
- STAT and HIF-1α expression ([6]; myeloma, FIG. 3D densitometry): downregulation of STATS and HIF-1α
- cellular superoxide anions (DHE) [7]: induction of cellular superoxide anions
- mitochondrial membrane potential (JC-1) [8]: mitochondrial membrane depolarization
- colony formation ([9]; PI-resistant lines (RPMI826 P/VR and U266 P/VR)): significantly reduced colony formation
- colony number and colony size ([9]; compared to control or ixazomib): significantly reduced colony number as well as colony size
- ALDH activity [10]: significant decrease in ALDH activity
- apoptosis in CFSEbright and CFSEdim cells [11]: caused apoptosis in both CFSEbright and CFSEdim cells
- number of CFSE-bright (non-dividing) cells [11]: significantly reduced their number
- side population (SP) [12]: reduced SP
- cleaved caspase-3 levels (CyTOF) [13, 15]: elevated cleaved caspase-3 levels
- marker expression (CyTOF) [13, 15]: downregulation of pS6, IRF4, pCREB, pRB, IKZF1
- cleaved caspase levels (CyTOF) ([13]; all cell lines and primary samples, cluster enriched for cells exposed to high dose CLF): elevated cleaved caspase levels
- myeloma survival markers incl. IRF4, IKZF1, IKZF3, CD229, CD27, pS6, pERK, IkBa (CyTOF and immunoblotting) ([13]; pre- vs post-treatment): shifts in a majority of these markers
- safe dose range ([14]; corresponds to human plasma Cmax): 0.84 to 8.4 µM
- human plasma Cmax ([14]; human plasma): 0.4 to 4 µg/mL
